# Tests used:
# [1] = Inhibition of MERS-CoV 3CLpro using SG-QXL520 as substrate preincubated with compound for 30 mins followed by susbtrate addition and measured after 30 mins by FRET assay; set-up: species or system Middle East respiratory syndrome-related coronavirus
# [2] = Cytotoxicity against cat CRFK cells incubated for 72 hrs by CytoTox 96 analysis; type: toxicity, cell-based, Felis catus
# [3] = molecular target: Replicase polyprotein 1ab (Severe acute respiratory syndrome coronavirus 2, UniProt P0DTD1); test: Inhibition of full length N-terminal his6-tagged SARS-CoV-2 3CL protease using FAM-SAVLQ as substrate preincubated with compound for 30 mins followed by substrate addition and measured after 30 mins by FRET assay
# SARS-CoV-2 = test: Antiviral activity against SARS CoV-2 Wuhan-Hu-1 infected in HEK293T cells incubated for 24 hrs; type: functional, organism-based; conditions: Severe acute respiratory syndrome coronavirus 2, Wuhan-Hu-1, HEK-293T
Structure (SMILES),IC50 [1] [nM],CC50 at 72 h [2] [nM],IC50 [3] [nM],EC50 (SARS-CoV-2) [nM]
CC(C)C[C@H](NC(=O)OC[C@@H]1CCC(=O)N1C[C@H]1C[C@@H]2C=C[C@H]1C2)C(=O)N[C@H](C=O)C[C@@H]1CCNC1=O,60,> 50000,418,–
CC(C)C[C@H](NC(=O)OCC1CC(=O)N(CC2CC3C=CC2C3)C1)C(=O)N[C@H](C=O)C[C@@H]1CCNC1=O (some centres undefined),80,> 50000,190,280
CC(C)C[C@H](NC(=O)OC[C@@H]1CCC(=O)N1CCc1ccccc1)C(=O)N[C@H](C=O)C[C@@H]1CCNC1=O,140,> 50000,730,–
CC(C)C[C@H](NC(=O)OC[C@@H]1CCC(=O)N1Cc1cccc(F)c1)C(=O)N[C@H](C=O)C[C@@H]1CCNC1=O,430,> 50000,110,50
CC(C)C[C@H](NC(=O)OCC1CC(=O)N(Cc2ccco2)C1)C(=O)N[C@@H](C[C@@H]1CCNC1=O)C(O)S(=O)(=O)O (some centres undefined),80,> 50000,560,–
CC(C)C[C@H](NC(=O)OCC1CCN(C[C@H]2C[C@H]3CC[C@@H]2C3)C1=O)C(=O)N[C@H](C=O)C[C@@H]1CCNC1=O (some centres undefined),90,> 50000,430,–
CC(C)C[C@H](NC(=O)OC[C@@H]1CCC(=O)N1CCC1CCCCC1)C(=O)N[C@H](C=O)C[C@@H]1CCNC1=O,90,> 50000,500,–
CC(C)C[C@H](NC(=O)OCC1CCN(Cc2cccc(C(F)(F)F)c2)C1=O)C(=O)N[C@H](C=O)C[C@@H]1CCNC1=O (some centres undefined),70,> 50000,850,–
CC(C)C[C@H](NC(=O)OC[C@@H]1CCC(=O)N1Cc1ccccc1)C(=O)N[C@@H](C[C@@H]1CCNC1=O)C(O)S(=O)(=O)O (some centres undefined),90,> 50000,490,–
CC(C)C[C@H](NC(=O)OC[C@@H]1CCC(=O)N1C[C@H]1C[C@@H]2CC[C@H]1C2)C(=O)N[C@H](C=O)C[C@@H]1CCNC1=O,70,> 50000,500,–
CC(C)C[C@H](NC(=O)OCC1CC(=O)N(Cc2ccccc2)C1)C(=O)N[C@@H](C[C@@H]1CCNC1=O)C(O)S(=O)(=O)O (some centres undefined),50,> 50000,650,–
CC(C)C[C@H](NC(=O)OC[C@@H]1CCC(=O)N1CCC1CCCCC1)C(=O)N[C@@H](C[C@@H]1CCNC1=O)C(O)S(=O)(=O)O (some centres undefined),90,> 50000,580,–
CC(C)C[C@H](NC(=O)OCC1CCN(C[C@H]2C[C@H]3CC[C@@H]2C3)C1=O)C(=O)N[C@@H](C[C@@H]1CCNC1=O)C(O)S(=O)(=O)O (some centres undefined),130,> 50000,510,–
CC(C)C[C@H](NC(=O)OC[C@@H]1CCC(=O)N1Cc1ccco1)C(=O)N[C@@H](C[C@@H]1CCNC1=O)C(O)S(=O)(=O)O (some centres undefined),50,> 50000,250,–
CC(C)C[C@H](NC(=O)OC[C@@H]1CCC(=O)N1CC1CCC(F)(F)CC1)C(=O)N[C@@H](C[C@@H]1CCNC1=O)C(O)S(=O)(=O)O (some centres undefined),60,> 50000,540,–
CC(C)C[C@H](NC(=O)OCC1CCN(Cc2ccccc2)C1=O)C(=O)N[C@@H](C[C@@H]1CCNC1=O)C(O)S(=O)(=O)O (some centres undefined),60,> 50000,820,–
CC(C)C[C@H](NC(=O)OC[C@@H]1CCC(=O)N1Cc1ccccc1)C(=O)N[C@H](C=O)C[C@@H]1CCNC1=O,130,> 50000,430,–

Structure (SMILES),IC50 [1] [nM],CC50 at 72 h [2] [nM],IC50 [3] [nM],EC50 (SARS-CoV-2) [nM]
CC(C)C[C@H](NC(=O)OC[C@@H]1CCC(=O)N1Cc1ccco1)C(=O)N[C@H](C=O)C[C@@H]1CCNC1=O,60,> 50000,330,–
CC(C)C[C@H](NC(=O)OC[C@@H]1CCC(=O)N1C[C@H]1C[C@@H]2C=C[C@H]1C2)C(=O)N[C@@H](C[C@@H]1CCNC1=O)C(O)S(=O)(=O)O (some centres undefined),60,> 50000,450,–
CC(C)C[C@H](NC(=O)OCC1CCN(Cc2ccco2)C1=O)C(=O)N[C@@H](C[C@@H]1CCNC1=O)C(O)S(=O)(=O)O (some centres undefined),150,> 50000,2010,–
CC(C)C[C@H](NC(=O)OC[C@H]1CCC(=O)N1CC1CCCCC1)C(=O)N[C@H](C=O)C[C@@H]1CCNC1=O,70,> 50000,500,–
CC(C)C[C@H](NC(=O)OCC1CCN(C[C@H]2C[C@H]3C=C[C@@H]2C3)C1=O)C(=O)N[C@@H](C[C@@H]1CCNC1=O)C(O)S(=O)(=O)O (some centres undefined),150,> 50000,550,–
CC(C)C[C@H](NC(=O)OCC1CCN(Cc2ccccc2)C1=O)C(=O)N[C@H](C=O)C[C@@H]1CCNC1=O (some centres undefined),60,> 50000,790,–
CC(C)C[C@H](NC(=O)OC[C@H]1CCC(=O)N1CC1CCCCC1)C(=O)N[C@@H](C[C@@H]1CCNC1=O)C(O)S(=O)(=O)O (some centres undefined),80,> 50000,510,–
CC(C)C[C@H](NC(=O)OC[C@@H]1CCC(=O)N1C[C@H]1C[C@@H]2CC[C@H]1C2)C(=O)N[C@@H](C[C@@H]1CCNC1=O)C(O)S(=O)(=O)O (some centres undefined),60,> 50000,410,–
CC(C)C[C@H](NC(=O)OCC1CC(=O)N(Cc2ccccc2)C1)C(=O)N[C@H](C=O)C[C@@H]1CCNC1=O (some centres undefined),80,> 50000,720,–
CC(C)C[C@H](NC(=O)OCC1CC(=O)N(Cc2ccco2)C1)C(=O)N[C@H](C=O)C[C@@H]1CCNC1=O (some centres undefined),70,> 50000,550,–
CC(C)C[C@H](NC(=O)OCC1CC(=O)N(Cc2cccc(C(F)(F)F)c2)C1)C(=O)N[C@H](C=O)C[C@@H]1CCNC1=O (some centres undefined),60,> 50000,410,–
CC(C)C[C@H](NC(=O)OCC1CCN(Cc2cccc(C(F)(F)F)c2)C1=O)C(=O)N[C@@H](C[C@@H]1CCNC1=O)C(O)S(=O)(=O)O (some centres undefined),60,> 50000,880,–
CC(C)C[C@H](NC(=O)OCC1CCN(Cc2ccco2)C1=O)C(=O)N[C@H](C=O)C[C@@H]1CCNC1=O (some centres undefined),130,> 50000,1960,–
CC(C)C[C@H](NC(=O)OCC1CCN(C[C@H]2C[C@H]3C=C[C@@H]2C3)C1=O)C(=O)N[C@H](C=O)C[C@@H]1CCNC1=O (some centres undefined),80,> 50000,460,–
CC(C)C[C@H](NC(=O)OC[C@@H]1CCC(=O)N1CC1CCC(F)(F)CC1)C(=O)N[C@H](C=O)C[C@@H]1CCNC1=O,60,> 50000,550,–
CC(C)C[C@H](NC(=O)OCC1CC(=O)N(Cc2cccc(C(F)(F)F)c2)C1)C(=O)N[C@@H](C[C@@H]1CCNC1=O)C(O)S(=O)(=O)O (some centres undefined),70,> 50000,350,–
CC(C)C[C@H](NC(=O)OC[C@@H]1CCC(=O)N1CCc1ccccc1)C(=O)N[C@@H](C[C@@H]1CCNC1=O)C(O)S(=O)(=O)O (some centres undefined),160,> 50000,550,–

# Source: ChEMBL document CHEMBL5523732, “Structure-Guided Design of Potent Coronavirus Inhibitors with a 2-Pyrrolidone Scaffold: Biochemical, Crystallographic, and Virological Studies” (J Med Chem, 2024)
